According to patent publication US8889671B2, “Compounds and methods for treating bacterial infections” (AstraZeneca AB, priority 2013, dated 2014):
≈ marks a conversion by molar mass, not a printed value. Read-outs that look alike come from different tables or passages of the source.

Experiments:
Klebsiella pneumoniae = assay: Susceptibility testing (MIC) Assay 2, broth microdilution; format: cell-based; details: clinical isolate, mucoid, read-out: Kpn MIC
Experimental: (§1) Minimum Inhibitory Concentrations (MICs) were determined by the broth microdilution method in accordance with the Clinical and Laboratory Standards Institute (CLSI) guidelines. In brief, organism suspensions were adjusted to a 0.5 McFarland standard to yield a final inoculum between 3×10^5 and 7×10^5 colony-forming units (CFU)/mL. Bacterial inocula were generally prepared in sterile, cation adjusted Mueller-Hinton Broth (Becton Dickinson) which included Escherichia coli, Klebsiella pneumoniae, and Pseudomonas aeruginosa. Haemophilus influenzae bacterial inocula were prepared in sterile, cation adjusted Mueller-Hinton Broth (Becton Dickinson) containing 0.5% yeast extract (Becton Dickinson) plus 30 mL of 15 μg/mL Bovine Hematin stock (Sigma), and 3 mL of 15 μg/mL β-nicotinamide adenine dinucleotide (Sigma). Strains of Neisseria were tested for MICs using agar dilution methodology in accordance with CLSI guidelines. For broth microdilution testing, an inoculum volume of 100 μL was added to wells (using a Tecan EVO robot) containing 2 μL of DMSO containing 2-fold serial dilutions of drug. All inoculated microdilution panels were incubated in ambient air at 35° C. for 18-24 hours. Following incubation, the lowest concentration of the drug that prevented visible growth as read at OD600 nm and confirmed by a visual read using a test reading mirror was recorded as the MIC. Performance of the assay was monitored by the use of laboratory quality-control strains and commercially available control compounds with defined MIC spectrums, in accordance with CLSI guidelines. Table 3 provides the MIC results (μM) of Examples 1-77 tested in Assay 2. Table 4 provides the MIC (μg/mL) results of Examples 78-80 tested in Assay 2.

Pseudomonas aeruginosa = assay: as above; format: cell-based; details: for MIC: PAO1, read-out: Pae MIC; for Pae MIC: PAO1
Experimental: as §1

Haemophilus influenzae = assay: as above; format: cell-based; details: ATCC 51907, in vivo strain, read-out: Hin MIC
Experimental: as §1

Escherichia coli = assay: as above; format: cell-based; details: K12, read-out: Eco MIC
Experimental: as §1

Streptococcus pneumoniae = assay: Susceptibility testing (MIC) Assay 1, broth microdilution; format: cell-based
Experimental: (§2) Minimum Inhibitory Concentrations (MICs) were determined by the broth microdilution method in accordance with the Clinical and Laboratory Standards Institute (CLSI) guidelines. In brief, organism suspensions were adjusted to a 0.5 McFarland standard to yield a final inoculum between 3×10^5 and 7×10^5 colony-forming units (CFU)/mL. Bacterial inocula were prepared for most organisms in sterile, cation adjusted Mueller-Hinton Broth (Beckton Dickinson). The streptococci were prepared as above in cation adjusted Mueller-Hinton Broth to which 2.5% lysed horse blood (Hema Resource & Supply Inc.) was added. An inoculum volume of 100 μL was added to wells (using a Tecan EVO robot) containing 2 μL of DMSO containing 2-fold serial dilutions of drug. All inoculated microdilution trays were incubated in ambient air at 35° C. for 18-24 hours. Following incubation, the lowest concentration of the drug that prevented visible growth as read at OD600 nm and confirmed by a visual read using a test reading mirror was recorded as the MIC. Performance of the assay was monitored by the use of laboratory quality-control strains and commercially available control compounds with defined MIC spectrums, in accordance with CLSI guidelines. Table 1 provides the MIC results (μM) of Examples 1-77 tested in Assay 1. Table 2 provides the MIC (μg/mL) results of Examples 78-80 tested in Assay 1.

Streptococcus pyogenes = assay: as above; format: cell-based; details: Streptococcus pyrgenes, in vivo strain, read-out: Spy MIC
Experimental: as §2

Staphylococcus aureus = assay: as above; format: cell-based
Experimental: as §2

[1] = target: Escherichia coli DNA gyrase A/B tetramer (Escherichia coli (strain K12), UniProt P0AES4+P0AES6); assay: DNA gyrase supercoiling activity fluorescence polarisation assay; format: biochemical; details: 0.3 mM ATP
Experimental: In a black, 384-well polystyrene assay plate, 30 microliters/well of 5 nM Escherichia coli DNA gyrase A/B tetramer and 130 micrograms/mL of topologically relaxed plasmid containing the triplex-forming sequence
in an assay buffer consisting of 35 mM Tris-HCl (pH 7.5), 24 mM KCl, 4 mM MgCl2, 2 mM dithiothreitol, 1.8 mM spermidine, 5% (v/v) glycerol, 200 nM bovine serum albumin, 0.8% dimethylsulfoxide, and 0.3 mM ATP were incubated at ambient temperature for (typically 30 minutes) in the absence or presence of 5-10 different concentrations of test compound. The supercoiling reactions were quenched by the addition of 10 microliters/well of 40 nM oligodeoxynucleotide probe in 3× triplex-forming buffer consisting of 150 mM NaCl, and 150 mM sodium acetate at pH 3.5. The oligodeoxynucleotide probe was 5′-BODIPY-FL-labeled
After 60 minutes, the fluorescence anisotropy of the BODIPY-FL was measured in a Tecan Ultra plate reader, using 485 nm excitation and 535 nm emission filters equipped with polarizers. The IC50 was determined by nonlinear regression using two control reactions.

[2] = ATCC51907, Haemophilus influenzae
[3] = in vivo strain (footnote b), read-out: Spn(b) MIC
[4] = in vivo strain (footnote c), read-out: Spn(c) MIC
[5] = Staphylococcus aureus, Staphylococcus aureus in vivo strain, MSQS, read-out: Sau(d) MIC
[6] = Staphylococcus aureus, in vivo strain, MRQR, read-out: Sau(e) MIC
[7] = Staphylococcus aureus, serum, read-out: Sau(f) MIC
[8] = Eco Gyr FP Mean IC50, E. coli DNA gyrase supercoiling
[9] = Staphylococcus aureus in vivo strain, MSQS, read-out: Sau(d) MIC
[10] = E. coli DNA gyrase supercoiling, read-out: Eco Gyr FP Mean IC50

SMILES | MIC (Klebsiella pneumoniae) [µM] | MIC (Pseudomonas aeruginosa) [µM] | MIC (Haemophilus influenzae; [2]) [µM] | MIC (Escherichia coli) [µM] | MIC (Streptococcus pneumoniae; [3]) [µM] | MIC (Streptococcus pneumoniae; [4]) [µM] | MIC (Streptococcus pyogenes; Streptococcus pyogenes) [µM] | MIC (Staphylococcus aureus; [5]) [µM] | MIC (Staphylococcus aureus; [6]) [µM] | MIC (Staphylococcus aureus; [7]) [µM] | IC50 [1, 8] [µM] | Pae MIC (Pseudomonas aeruginosa) [µM] | MIC (Haemophilus influenzae) [µM] | MIC (Streptococcus pyogenes) [µM] | MIC (Staphylococcus aureus; [9]) [µM] | IC50 [1, 10] [µM]
C[C@@H]1CN2c3c(cc4c(N5C[C@@H](CO)OC5=O)noc4c3F)CC3(C(=O)NC(=O)NC3=O)[C@H]2[C@H](C)O1 [Example 26, (2R,4S,4aS)-11-Fluoro-8-((S)-5-(hydroxymethyl)-2-oxooxazolidin-3-yl)-2,4-dimethyl-2,4,4a,6-tetrahydro-1H,1′H-spiro[isoxazolo[4,5-g][1,4]oxazino[4,3-a]quinoline-5,5′-pyrimidine]-2′,4′,6′(3′H)-trione] | > 200 | > 200 | < 0.2 | 25 (≈ 12.6 µg/mL) | 0.28 (≈ 0.141 µg/mL) | 0.55 (≈ 0.277 µg/mL) | < 0.2 | 2.2 (≈ 1.11 µg/mL) | 12 (≈ 6.04 µg/mL) | 1.6 (≈ 0.806 µg/mL) | 0.17 |  |  |  |  | 
C[C@@H]1CN2c3c(cc4c(N5C(=O)OC[C@H]5C5CCOCC5)noc4c3F)CC3(C(=O)NC(=O)NC3=O)[C@H]2[C@H](C)O1 [Example 27] | >200 |  |  | 100 (≈ 55.8 µg/mL) | 0.78 (≈ 0.435 µg/mL) | 0.78 (≈ 0.435 µg/mL) |  |  | 3.1 (≈ 1.73 µg/mL) | 1.6 (≈ 0.892 µg/mL) |  | >200 | 0.39 (≈ 0.217 µg/mL) | 0.78 (≈ 0.435 µg/mL) | 0.78 (≈ 0.435 µg/mL) | 0.53
C[C@@H]1CN2c3c(cc4c(N5C(=O)OC[C@@H]5C5CCOCC5)noc4c3F)CC3(C(=O)NC(=O)NC3=O)[C@H]2[C@H](C)O1 [Example 28] | >200 |  |  | >200 | 25 (≈ 13.9 µg/mL) | 25 (≈ 13.9 µg/mL) |  |  | 50 (≈ 27.9 µg/mL) | 50 (≈ 27.9 µg/mL) |  | >200 | 25 (≈ 13.9 µg/mL) | 25 (≈ 13.9 µg/mL) | 25 (≈ 13.9 µg/mL) | > 2.1
C[C@@H]1CN2c3c(cc4c(N5C(=O)OC[C@@H]5CCCO)noc4c3F)CC3(C(=O)NC(=O)NC3=O)[C@H]2[C@H](C)O1 [Example 29, (2R,4S,4aS)-11-Fluoro-8-((S)-4-(3-hydroxypropyl)-2-oxooxazolidin-3-yl)-2,4-dimethyl-2,4,4a,6-tetrahydro-1H,1′H-spiro[isoxazolo[4,5-g][1,4]oxazino[4,3-a]quinoline-5,5′-pyrimidine]-2′,4′,6′(3′H)-trione] | > 200 | > 200 | 0.78 (≈ 0.415 µg/mL) | 100 (≈ 53.1 µg/mL) | 0.39 (≈ 0.207 µg/mL) | 0.78 (≈ 0.415 µg/mL) | 0.39 (≈ 0.207 µg/mL) | 3.1 (≈ 1.65 µg/mL) | 12 (≈ 6.38 µg/mL) | 3.1 (≈ 1.65 µg/mL) | 0.27 |  |  |  |  | 
C[C@@H]1CN2c3c(cc4c(N5C(=O)OC[C@@H]5CCCF)noc4c3F)CC3(C(=O)NC(=O)NC3=O)[C@H]2[C@H](C)O1 [Example 30, (2R,4S,4aS)-11-Fluoro-8-((S)-4-(3-fluoropropyl)-2-oxooxazolidin-3-yl)-2,4-dimethyl-2,4,4a,6-tetrahydro-1H,1′H-spiro[isoxazolo[4,5-g][1,4]oxazino[4,3-a]quinoline-5,5′-pyrimidine]-2′,4′,6′(3′H)-trione] | 200 (≈ 107 µg/mL) | > 200 | 0.39 (≈ 0.208 µg/mL) | 25 (≈ 13.3 µg/mL) | 0.39 (≈ 0.208 µg/mL) | 0.39 (≈ 0.208 µg/mL) | 0.39 (≈ 0.208 µg/mL) | < 0.2 | 0.78 (≈ 0.416 µg/mL) | 0.78 (≈ 0.416 µg/mL) | 0.5 |  |  |  |  | 
